Measurements taken from patent publication US20190125888A1, “TARGETED CONJUGATES AND PARTICLES AND FORMULATIONS THEREOF” (priority 2015, published 2019).
Read-outs that look alike come from different tables or passages of the source. Where a SMILES comes first, the peptide text is derived from it. Bridges are numbered along the chain shown (N, C = ends). [ ]: non-standard residue; d: D form. The star is where a group is joined. NH(CH2)2SS(DM1) = COc1cc2cc(c1Cl)N(C)C(=O)C[C@H](OC(=O)[C@H](C)N(C)C(=O)CCSSCCN*)[C@]1(C)O[C@H]1[C@H](C)[C@@H]1C[C@@](O)(NC(=O)O1)[C@H](OC)/C=C/C=C(\C)C2; X1 = COc1cc2cc(c1Cl)N(C)C(=O)C[C@H](OC(=O)[C@H](C)N(C)C(=O)CCS*)[C@]1(C)O[C@H]1[C@H](C)[C@@H]1C[C@@](O)(NC(=O)O1)[C@H](OC)/C=C/C=C(\C)C2; Octanoyl = CCCCCCCC(=O)*

How the values were obtained:
[1] = Chrom LogP of maytansinoid conjugates; assay type: physicochemical
[2] = Ligand charge of maytansinoid conjugates; assay type: physicochemical
[3] = biological target: human SSTR2 (Homo sapiens, UniProt P30874); assay: Radioligand-receptor binding assay, [125I] somatostatin, membranes from SSTR2 expressing CHO-K1 cells
Protocol: These conjugates were also assessed in an in vitro assay evaluating binding to the somatostatin receptor 2 (SSTR2). A radioligand-receptor binding assay was conducted at Eurofins Panlabs (Taiwan) to determine the affinity of conjugates described herein to the SSTR2. The assay measures binding of radiolabeled ligand, [^125I] labeled somatostatin, to human SSTR2 using membrane preparations from SSTR2 expressing CHO-K1 cells. Membranes were incubated with radiolabeled somatostatin (0.03 nM) in the presence of conjugate/compound starting at a dose of 10 uM using 6× serial dilutions to obtain a 10-pt curve. After a four hour incubation, membranes were filtered and washed 3× and counted to determine the remaining [^125I] somatostatin bound to the receptor. IC50 values were determined by a non-linear, least squares regression analysis using MathIQ™ (ID Business Solutions Ltd., UK).

[4] = test system: NCI-H524 (ATCC) human lung cancer cells; assay type: cell-based
Outline: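 NCI-H524 cells (5,000/well) exposed to conjugates for 6 hours, washed, then grown a further 66 hours; ten-point threefold dilutions from 20 μM. Proliferation by CellTiter-Glo versus vehicle; IC50 by four-parameter nonlinear regression, measured with and without octreotide competition.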

[5] = test system: human NCI-H69 SCLC; assay: H69 xenograft efficacy study, tumor growth inhibition; assay type: in vivo, mice
Protocol: Applicants assessed the activity of maytansinoid conjugates in vivo. In these experiments, the ability of conjugates to affect the growth of human NCI-H69 SCLC was tested. For the in vivo study, 8 week old female NCR nude mice were inoculated subcutaneously into the right flank with 2 million cells in 1:1 RPMI 1640 (Invitrogen, Carlsbad, Calif.)/Matrigel® (BD Biosciences, San Jose, Calif.). Tumor measurements were taken twice weekly, using vernier calipers. Tumor volume was calculated using the formula: V=0.5×width×width×length.
When tumors approached a volume of 200 mm^3, mice were randomized into four groups of ten animals. Mice were treated with vehicle control (10% propylene glycol in water for injection) and maytansinoid conjugates (10% propylene glycol in water for injection). Final tumor volumes were analyzed using with a one-way analysis of variance and Tukey multiple comparison test.

[6] = read-out: H524 IC50 6 h, 6 hours treatment, further 66 hours incubation
[7] = read-out: H524 IC50 with 100 μM octreotide 6 h, with 100 μM octreotide competition, 6 h treatment

human SSTR2, sequence (P30874 whole entry): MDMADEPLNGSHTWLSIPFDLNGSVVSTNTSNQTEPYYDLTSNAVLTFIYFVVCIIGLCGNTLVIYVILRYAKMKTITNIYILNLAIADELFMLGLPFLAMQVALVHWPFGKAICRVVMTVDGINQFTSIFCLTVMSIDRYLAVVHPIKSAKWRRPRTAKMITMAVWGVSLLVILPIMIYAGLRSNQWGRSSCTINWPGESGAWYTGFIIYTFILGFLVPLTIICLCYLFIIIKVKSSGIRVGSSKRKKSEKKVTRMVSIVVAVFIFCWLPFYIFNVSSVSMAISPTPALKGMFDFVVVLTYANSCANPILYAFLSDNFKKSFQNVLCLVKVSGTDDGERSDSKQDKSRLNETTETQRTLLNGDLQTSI

Compound | chromatographic logP [1] | Ligand charge [2] | Ki [3] | IC50 [4, 6] | IC50 [4, 7] | TGI % Day 13 ([5]; 0.7 mg/kg once weekly for two doses, Day 13) | TGI % Day 17 ([5]; 0.7 mg/kg once weekly for two doses, Day 17) | TGI % Day 20 ([5]; 0.7 mg/kg once weekly for two doses, Day 20) | TGI % Day 24 ([5]; 0.7 mg/kg once weekly for two doses, Day 24) | TGI % Day 30 ([5]; 0.7 mg/kg once weekly for two doses, Day 30) | TGI % at day 22 ([5]; Dose 0.67 × 2 mg/kg, total dose 1.34 mg/kg)
COc1cc2cc(c1Cl)N(C)C(=O)C[C@H](OC(=O)[C@H](C)N(C)C(=O)CCC(C)(C)SSC[C@H](NC(=O)[C@@H]1CSSC[C@H](NC(=O)[C@H](N)Cc3ccccc3)C(=O)N[C@@H](Cc3ccc(O)cc3)C(=O)N[C@H](Cc3c[nH]c4ccccc34)C(=O)N[C@@H](CCCCN)C(=O)N[C@@H]([C@@H](C)O)C(=O)N1)C(N)=O)[C@]1(C)O[C@H]1[C@H](C)[C@@H]1C[C@@](O)(NC(=O)O1)[C@H](OC)/C=C/C=C(\C)C2 [Conjugate 4] | 2.21 | +2 | 0.075 nM | 78 nM | 348 nM |  |  |  |  |  | 
COc1cc2cc(c1Cl)N(C)C(=O)C[C@H](OC(=O)[C@H](C)N(C)C(=O)CCSSC(C)(C)[C@H](NC(=O)[C@@H]1CSSC[C@H](NC(=O)[C@@H](Cc3ccccc3)NC(=O)NCc3ccccc3)C(=O)N[C@@H](Cc3ccc(O)cc3)C(=O)N[C@H](Cc3c[nH]c4ccccc34)C(=O)N[C@@H](CCCCN)C(=O)N[C@@H]([C@@H](C)O)C(=O)N1)C(N)=O)[C@]1(C)O[C@H]1[C@H](C)[C@@H]1C[C@@](O)(NC(=O)O1)[C@H](OC)/C=C/C=C(\C)C2 [Conjugate 7] | 2.6 | +1 | 0.025 nM | 4.7 nM | 181 nM |  |  |  |  |  | 
COc1cc2cc(c1Cl)N(C)C(=O)C[C@H](OC(=O)[C@H](C)N(C)C(=O)CCSSC(C)(C)[C@H](NC(=O)[C@@H]1CSSC[C@H](NC(=O)[C@@H](Cc3ccccc3)NC(=O)Nc3ccccc3)C(=O)N[C@@H](Cc3ccc(O)cc3)C(=O)N[C@H](Cc3c[nH]c4ccccc34)C(=O)N[C@@H](CCCCN)C(=O)N[C@@H]([C@@H](C)O)C(=O)N1)C(N)=O)[C@]1(C)O[C@H]1[C@H](C)[C@@H]1C[C@@](O)(NC(=O)O1)[C@H](OC)/C=C/C=C(\C)C2 [Conjugate 11] | 2.98 | +1 | 0.034 nM | 6.1 nM | 232 nM |  |  |  |  |  | 
COc1cc2cc(c1Cl)N(C)C(=O)C[C@H](OC(=O)[C@H](C)N(C)C(=O)CCSSC(C)(C)[C@H](NC(=O)[C@@H]1CSSC[C@H](NC(=O)[C@@H](Cc3ccccc3)NCc3ccccc3)C(=O)N[C@@H](Cc3ccc(O)cc3)C(=O)N[C@H](Cc3c[nH]c4ccccc34)C(=O)N[C@@H](CCCCN)C(=O)N[C@@H]([C@@H](C)O)C(=O)N1)C(N)=O)[C@]1(C)O[C@H]1[C@H](C)[C@@H]1C[C@@](O)(NC(=O)O1)[C@H](OC)/C=C/C=C(\C)C2 [Conjugate 12] | 2.57 | +2 | 0.02 nM | 19.5 nM | 331 nM |  |  |  |  |  | 
CCCC(=O)N[C@H](Cc1ccccc1)C(=O)N[C@H]1CSSC[C@@H](C(=O)N[C@H](C(=O)NCCSSCCC(=O)N(C)[C@@H](C)C(=O)O[C@H]2CC(=O)N(C)c3cc(cc(OC)c3Cl)C/C(C)=C/C=C/[C@@H](OC)[C@@]3(O)C[C@H](OC(=O)N3)[C@@H](C)[C@@H]3O[C@@]23C)[C@@H](C)O)NC(=O)[C@H]([C@@H](C)O)NC(=O)[C@H](CCCCN)NC(=O)[C@@H](Cc2c[nH]c3ccccc23)NC(=O)[C@H](Cc2ccc(O)cc2)NC1=O [Conjugate 19] | 2.88 | +1 |  | 6.9 nM | 111 nM |  |  |  |  |  | 
COc1cc2cc(c1Cl)N(C)C(=O)C[C@H](OC(=O)[C@H](C)N(C)C(=O)CCSSCCNC(=O)[C@@H](NC(=O)[C@@H]1CSSC[C@H](NC(=O)[C@@H](Cc3ccccc3)NC(=O)NC3CCCCC3)C(=O)N[C@@H](Cc3ccc(O)cc3)C(=O)N[C@H](Cc3c[nH]c4ccccc34)C(=O)N[C@@H](CCCCN)C(=O)N[C@@H]([C@@H](C)O)C(=O)N1)[C@@H](C)O)[C@]1(C)O[C@H]1[C@H](C)[C@@H]1C[C@@](O)(NC(=O)O1)[C@H](OC)/C=C/C=C(\C)C2 [Conjugate 20] | 3.1 | +1 |  | 11 nM | 52 nM |  |  |  |  |  | 
CCCCCCCC(=O)N[C@H](Cc1ccccc1)C(=O)N[C@H]1CSSC[C@@H](C(=O)NCCSSCCC(=O)N(C)[C@@H](C)C(=O)O[C@H]2CC(=O)N(C)c3cc(cc(OC)c3Cl)C/C(C)=C/C=C/[C@@H](OC)[C@@]3(O)C[C@H](OC(=O)N3)[C@@H](C)[C@@H]3O[C@@]23C)NC(=O)[C@H]([C@@H](C)O)NC(=O)[C@H](CCCCN)NC(=O)[C@@H](Cc2c[nH]c3ccccc23)NC(=O)[C@H](Cc2ccc(O)cc2)NC1=O [Conjugate 21] (Octanoyl-[dF]CY[dW]KTC-{NH(CH2)2SS(DM1)}; disulfide 2-7) | 3.48 | +1 | 1.29 nM |  |  |  |  |  |  |  | 
COc1cc2cc(c1Cl)N(C)C(=O)C[C@H](OC(=O)[C@H](C)N(C)C(=O)CCSSC[C@H](NC(=O)[C@@H]1CSSC[C@H](NC(=O)[C@H](N)Cc3c[nH]c4ccccc34)C(=O)N[C@@H](Cc3ccc(O)cc3)C(=O)N[C@H](Cc3c[nH]c4ccccc34)C(=O)N[C@@H](CCCCN)C(=O)N[C@@H]([C@@H](C)O)C(=O)N1)C(N)=O)[C@]1(C)O[C@H]1[C@H](C)[C@@H]1C[C@@](O)(NC(=O)O1)[C@H](OC)/C=C/C=C(\C)C2 [Conjugate 24] (H-[dW]CY[dW]KTCC(X1)-NH2; disulfide 2-7) | 2.03 | +2 |  | 140 nM | 214 nM |  |  |  |  |  | 
COc1cc2cc(c1Cl)N(C)C(=O)C[C@H](OC(=O)[C@H](C)N(C)C(=O)CCSSC[C@H](NC(=O)[C@@H]1CSSC[C@H](NC(=O)[C@@H](Cc3ccccc3)NC(=O)NCCC(F)(F)C(F)(F)C(F)(F)C(F)(F)C(F)(F)C(F)(F)C(F)(F)C(F)(F)F)C(=O)N[C@@H](Cc3ccc(O)cc3)C(=O)N[C@H](Cc3c[nH]c4ccccc34)C(=O)N[C@@H](CCCCN)C(=O)N[C@@H]([C@@H](C)O)C(=O)N1)C(N)=O)[C@]1(C)O[C@H]1[C@H](C)[C@@H]1C[C@@](O)(NC(=O)O1)[C@H](OC)/C=C/C=C(\C)C2 [Conjugate 40] | 4 | +1 | 3.51 nM |  |  |  |  |  |  |  | 
COc1cc2cc(c1Cl)N(C)C(=O)C[C@H](OC(=O)[C@H](C)N(C)C(=O)CCSSCCC(=O)NC[C@H](NC(=O)[C@@H]1CSSC[C@H](NC(=O)[C@H](N)Cc3ccccc3)C(=O)N[C@@H](Cc3ccc(O)cc3)C(=O)N[C@H](Cc3c[nH]c4ccccc34)C(=O)N[C@@H](CCCCN)C(=O)N[C@@H]([C@@H](C)O)C(=O)N1)C(N)=O)[C@]1(C)O[C@H]1[C@H](C)[C@@H]1C[C@@](O)(NC(=O)O1)[C@H](OC)/C=C/C=C(\C)C2 [Conjugate 44] |  | +2 | 0.022 nM | 3.6 nM | 218 nM | 58.9% | 56.7% | 59.6% | 53.1% | 56.1% | 60%
CCNC(=O)[C@@H](NC(=O)[C@@H]1CSSC[C@H](NC(=O)[C@@H](Cc2ccccc2)NCCCSSCCC(=O)N(C)[C@@H](C)C(=O)O[C@@H]2CC(=O)N(C)c3cc(cc(OC)c3Cl)C/C(C)=C/C=C/[C@@H](OC)[C@@]3(O)C[C@H](OC(=O)N3)[C@@H](C)[C@@H]3O[C@@]23C)C(=O)N[C@@H](Cc2ccc(O)cc2)C(=O)N[C@H](Cc2c[nH]c3ccccc23)C(=O)N[C@@H](CCCCN)C(=O)N[C@@H]([C@@H](C)O)C(=O)N1)[C@@H](C)O [Conjugate 50] | 2.32 | +2 |  | 43 nM | 149 nM |  |  |  |  |  | 
CCCCCCNC(=O)[C@@H](NC(=O)[C@@H]1CSSC[C@H](NC(=O)[C@@H](Cc2ccccc2)NC(=O)NCCSSCCC(=O)N(C)[C@@H](C)C(=O)O[C@H]2CC(=O)N(C)c3cc(cc(OC)c3Cl)C/C(C)=C/C=C/[C@@H](OC)[C@@]3(O)C[C@H](OC(=O)N3)[C@@H](C)[C@@H]3O[C@@]23C)C(=O)N[C@@H](Cc2ccc(O)cc2)C(=O)N[C@H](Cc2c[nH]c3ccccc23)C(=O)N[C@@H](CCCCN)C(=O)N[C@@H]([C@@H](C)O)C(=O)N1)[C@@H](C)O [Conjugate 52] | 3.24 | +1 |  | 23 nM | 167 nM |  |  |  |  |  | 
CCNC(=O)[C@@H](NC(=O)[C@@H]1CSSC[C@H](NC(=O)[C@@H](Cc2ccccc2)NC(=O)NCCSSCCC(=O)N(C)[C@@H](C)C(=O)O[C@H]2CC(=O)N(C)c3cc(cc(OC)c3Cl)C/C(C)=C/C=C/[C@@H](OC)[C@@]3(O)C[C@H](OC(=O)N3)[C@@H](C)[C@@H]3O[C@@]23C)C(=O)N[C@@H](Cc2ccc(O)cc2)C(=O)N[C@H](Cc2c[nH]c3ccccc23)C(=O)N[C@@H](CCCCN)C(=O)N[C@@H]([C@@H](C)O)C(=O)N1)[C@@H](C)O [Conjugate 53] | 2.45 | +1 |  | 42 nM | 86 nM |  |  |  |  |  | 
